pIC50: −log10 of the molar value. Like-named read-outs stand apart in the source and are kept apart here.
How the values were obtained:
A549 [1] = assay: Test Example 2 in vitro cytotoxic activity screening (CTG); type: cell-based; conditions: for pIC50: Homo sapiens
Method: (§1) The CTG is used for detecting the ATP content in the experiment, and the survival condition of the tumor cells is reflected.
(§2) A549, SKBR3 and MDA-MB-468 were digested with trypsin, and each was resuspended in culture medium to a cell density of 2.2×10^4 cells/mL, and 135 μL of cell suspension was added to each well in columns 2 to 11 of a 96-well plate, and column 12 was set as blank control. The cells were incubated in an incubator for 24 h at 37° C. with 5% CO2.
(§3) a) Stock solution preparation: the test compound and positive control drug were dissolved in DMSO to give a stock solution at a concentration of 5 mM.
(§4) b) Drug preparation plate 1: stock solution in column 1 was initially diluted 40-fold, and 3-fold gradient dilutions were performed sequentially in column 2 to column 11. Column 12 was filled with DMSO.
(§5) c) Drug preparation plate 2: 196 μL of the corresponding culture medium was added into columns 2 to 11, and 4 μL of culture medium was pipetted from column 3 to column 12 of drug preparation plate 1 to column 2 to column 11 of drug preparation plate
(§6) 15 μL of culture medium was pipetted from the drug preparation plate 2 and added into the plated cells. The cells were continuously incubated in an incubator for 5 h at 37° C. with 5% CO2.
(§7) 2.4) CTG assay (Cell Titer-Glo™, luminescent cell viability assay): the cell plates were removed and balanced to room temperature. 75 μL of CTG was added into each well and reacted at room temperature for 10 min in the dark. The absorption value was read using a microplate reader and IC50 was calculated.

SKBR3 = assay: as above; type: cell-based; conditions: for pIC50: Homo sapiens
Method: as §1, §2, §3, §4, §5, §6, §7

MDA-MB-468 [2] = assay: as above; type: cell-based; conditions: for pIC50: Homo sapiens
Method: as §1, §2, §3, §4, §5, §6, §7

A549 [3] = assay: Test Example 1 in vitro cytotoxic activity screening (CTG); type: cell-based, human; conditions: for pIC50: Homo sapiens
Method: (§8) The CTG is used for detecting the ATP content in the experiment, and the survival condition of the tumor cells is reflected. […] The killing effect of the toxin molecule was then assayed according to this condition. 1.2. Selection of cell lines
(§9) According to the purpose of the experiment, two disease models of breast cancer and NSCLC were selected, and SKBR3 tumor cells (HER2+, ATCC, Cat #HTB-30), MDA-MB-468 (HER2-, ATCC, Cat #HTB-132) and A549 (human non-small cell lung cancer cells, ATCC, Cat #CCL-185) were selected for screening.
(§10) 2) Cell plating: A549 cells were digested with trypsin, and the cells were terminated with the above medium, and 4.3×10^5, 7.2×10^5 and 11.5×10^5 cells were added to the medium to give a final volume of 26 mL. 180 μL of cell suspension was added to each well in columns 2 to 11 of a 96-well plate (coming, Cat #3903) to give cell densities of 3K, 5K and 8K per well. Wells in column 12 were filled with 200 μL of culture medium and the remaining wells were filled with PBS. The above operations were repeated on the SKBR3 and MDA-MB-468 cells. The sample was duplicated.
(§11) 2 mM of stock solution (stock diluted 10-fold in DMSO) was prepared in column 1 of drug preparation plate 1, then 10-fold dilution in DMSO by gradient was performed in column 10, and the wells in column 11 were filled with DMSO. 95 μL of corresponding culture solution was added into each well from column 2 to column 11 of the drug preparation plate 2, 5 μL of solution was pipetted from column 2 to column 11 of drug preparation plate 1 to drug preparation plate 2, the solution was mixed well, 20 μL of solution was pipetted, added into the plated cells, and continuously cultured for 3 days and 5 days.
(§12) 4) CTG assay (Cell Titer-Glo™, luminescent cell viability assay, Promega): the cell plates were removed on day 3 and day 5, and balanced to room temperature. 90 μL of CTG was added into each well and reacted at room temperature for 10 min in the dark. The absorption value was read using a microplate reader and IC50 was calculated.

SKBR3 tumor cells = assay: as above; type: cell-based; conditions: for pIC50: Homo sapiens, SK-BR-3
Method: as §8, §9, §10, §11, §12

MDA-MB-468 [4] = assay: as above; type: cell-based; conditions: for pIC50: Homo sapiens
Method: as §8, §9, §10, §11, §12

in vivo = conditions: male, beagle, dog, iv, 0.5 mg/kg
Method: The pharmacokinetic performance in beagles of the compounds of the present disclosure was studied and the pharmacokinetic profile thereof was evaluated.
Male 6 beagles were divided into 2 groups of 3, purchased from Shanghai Medicilon Inc., and subjected to administration test.
Plasma samples were stored in a refrigerator at −80° C. prior to testing. […] The plasma concentration of the test compounds in beagles after drug injection was determined: after administration, 25 μL of beagle plasma at various times after administration was taken, and added with 50 μL (100 ng/mL) of internal standard solution camptothecin (National Institutes for Drug Control) and 200 μL of acetonitrile. The mixture was vortexed for 5 min and centrifuged for 10 min (3700 rpm/min). 3 to 4 μL of the supernatant of the plasma sample was subjected to LC/MS assay (API4000 triple quadrupole tandem mass spectrometer (No. 2), Applied Biosystems, USA; Shimadzu, LC-30AD ultra high performance liquid chromatography system, Shimadzu, Japan.) The analysis was performed.

[5] = SK-BR-3, SKBR3, CTG, incubated 5 h, read-out: IC50
[6] = MDA-MB-468, CTG, read-out: IC50

C=C1C[C@@H]2CC[C@@]34C[C@H]5O[C@H]6[C@@H](O3)[C@H]3O[C@H](CC[C@@H]3O[C@H]6[C@H]5O4)CC(=O)C[C@@H]3[C@@H](OC)[C@@H](C[C@H](O)CNC)O[C@H]3C[C@H]3O[C@@H](CC[C@@H]1O2)C[C@@H](C)C3=C [Compound E-305, reference compound]
Maximum inhibition (A549 [1]; A549, CTG, incubated 5 h): 61.27% | pIC50 (A549 [1]; A549, 5 h): 8.68 | pIC50 (SKBR3; [5]): 9.24 | Maximum inhibition (SKBR3; SKBR3, CTG, incubated 5 h): 96.42% | pIC50 (MDA-MB-468 [2]; MDA-MB-468, 5 h): 8.93 | Maximum inhibition (MDA-MB-468 [2]; MDA-MB-468, CTG, incubated 5 h): 88.53%

C=C1C[C@@H]2CC[C@@]34C[C@H]5O[C@H]6[C@@H](O3)[C@H]3O[C@H](CC[C@@H]3O[C@H]6[C@H]5O4)CC(=O)C[C@@H]3[C@@H](OC)[C@@H](C[C@H](O)COC(=O)[C@H](O)C4CC4)O[C@H]3C[C@H]3O[C@@H](CC[C@@H]1O2)C[C@@H](C)C3=C [Compound D-6]
pIC50 (A549 [3]; A549, CTG, read-out: IC50): 8.73 | pIC50 (SKBR3 tumor cells; SKBR3, CTG, read-out: IC50): 9.53 | pIC50 (MDA-MB-468 [4]; [6]): 9.00

C=C1C[C@@H]2CC[C@@]34C[C@H]5O[C@H]6[C@@H](O3)[C@H]3O[C@H](CC[C@@H]3O[C@H]6[C@H]5O4)CC(=O)C[C@@H]3[C@@H](OC)[C@@H](C[C@H](O)CN)O[C@H]3C[C@H]3O[C@@H](CC[C@@H]1O2)C[C@@H](C)C3=C [Eribulin, eribulin, reference compound]
concentration at 5 min (in vivo): 217 ng/mL | Maximum inhibition (A549 [3]; A549, CTG): 81.50% | Maximum inhibition (SKBR3 tumor cells; SKBR3, CTG): 94.90% | Maximum inhibition (MDA-MB-468 [4]; MDA-MB-468, CTG): 87.47%

C=C1C[C@@H]2CC[C@@]34C[C@H]5O[C@H]6[C@@H](O3)[C@H]3O[C@H](CC[C@@H]3O[C@H]6[C@H]5O4)CC(=O)C[C@@H]3[C@@H](OC)[C@@H](C[C@H](O)CNC(=O)C4(O)CC4)O[C@H]3C[C@H]3O[C@@H](CC[C@@H]1O2)C[C@@H](C)C3=C [Compound D-5]
pIC50 (A549 [3]; A549, CTG, read-out: IC50): 8.40 | pIC50 (SKBR3 tumor cells; SKBR3, CTG, read-out: IC50): 9.42

C=C1C[C@@H]2CC[C@@]34C[C@H]5O[C@H]6[C@@H](O3)[C@H]3O[C@H](CC[C@@H]3O[C@H]6[C@H]5O4)CC(=O)C[C@@H]3[C@@H](OC)[C@@H](C[C@@H](CN)OC)O[C@H]3C[C@H]3O[C@@H](CC[C@@H]1O2)C[C@@H](C)C3=C [Compound D-1]
AUC(0-t) (in vivo; in vivo): 433 ng·h/mL | MRT (in vivo; in vivo): 41.1 h | Vd (in vivo; in vivo): 22 L/kg | clearance (in vivo; in vivo): 8.9 mL/min/kg | concentration at 5 min (in vivo; in vivo): 82.1 ng/mL | half-life (in vivo; in vivo): 29.3 h | Maximum inhibition (A549 [3]; A549, CTG): 81.34% | pIC50 (A549 [3]; A549): 9.29 | pIC50 (SKBR3 tumor cells): 9.69 | Maximum inhibition (SKBR3 tumor cells; SKBR3, CTG): 96.87% | pIC50 (MDA-MB-468 [4]; MDA-MB-468): 9.74 | Maximum inhibition (MDA-MB-468 [4]; MDA-MB-468, CTG): 88.01%

C=C1C[C@@H]2CC[C@@]34C[C@H]5O[C@H]6[C@@H](O3)[C@H]3O[C@H](CC[C@@H]3O[C@H]6[C@H]5O4)CC(=O)C[C@@H]3[C@@H](OC)[C@@H](C[C@H](O)CNC(=O)[C@H](O)C4CC4)O[C@H]3C[C@H]3O[C@@H](CC[C@@H]1O2)C[C@@H](C)C3=C [Compound D-2]
pIC50 (A549 [3]; A549, CTG, read-out: IC50): 8.50 | pIC50 (SKBR3 tumor cells; SKBR3, CTG, read-out: IC50): 9.08 | pIC50 (MDA-MB-468 [4]; [6]): 9.04

C=C1C[C@@H]2CC[C@]34C[C@@H]5O[C@H]6[C@@H](O3)[C@@H]3O[C@H](CC[C@@H]3O[C@@H]6[C@H]5O4)CC(=O)C[C@@H]3[C@H](OC)[C@@H](C[C@H](O)CNC(=O)CO)O[C@H]3C[C@H]3O[C@@H](CC[C@@H]1O2)C[C@H](C)C3=C [Compound D-4]
pIC50 (A549 [3]; A549, CTG, read-out: IC50): 8.25 | Maximum inhibition (A549 [1]; A549, CTG, incubated 5 h): 62.09% | pIC50 (A549 [1]; A549, CTG, incubated 5 h, read-out: IC50): 8.51 | pIC50 (SKBR3; [5]): 8.96 | Maximum inhibition (SKBR3; SKBR3, CTG, incubated 5 h): 96.85% | pIC50 (MDA-MB-468 [2]; MDA-MB-468, CTG, incubated 5 h, read-out: IC50): 8.73 | Maximum inhibition (MDA-MB-468 [2]; MDA-MB-468, CTG, incubated 5 h): 89.43% | pIC50 (SKBR3 tumor cells; SKBR3, CTG, read-out: IC50): 8.89 | pIC50 (MDA-MB-468 [4]; [6]): 8.75

C=C1C[C@@H]2CC[C@@]34C[C@H]5O[C@H]6[C@@H](O3)[C@H]3O[C@H](CC[C@@H]3O[C@H]6[C@H]5O4)CC(=O)C[C@@H]3[C@@H](OC)[C@@H](C[C@H](O)COC(=O)c4ccc(CO)cc4)O[C@H]3C[C@H]3O[C@@H](CC[C@@H]1O2)C[C@@H](C)C3=C [Compound D-8]
pIC50 (A549 [3]; A549, CTG, read-out: IC50): 9.09 | pIC50 (SKBR3 tumor cells; SKBR3, CTG, read-out: IC50): 9.48 | pIC50 (MDA-MB-468 [4]; [6]): 9.07

C=C1C[C@@H]2CC[C@@]34C[C@H]5O[C@H]6[C@@H](O3)[C@H]3O[C@H](CC[C@@H]3O[C@H]6[C@H]5O4)CC(=O)C[C@@H]3[C@@H](OC)[C@@H](C[C@@H](CNC(=O)[C@H](O)C4CC4)OC)O[C@H]3C[C@H]3O[C@@H](CC[C@@H]1O2)C[C@@H](C)C3=C [Compound D-3]
pIC50 (A549 [3]; A549): 8.29 | Maximum inhibition (A549 [1]; A549, CTG, incubated 5 h): 63.03% | pIC50 (A549 [1]; A549, 5 h): 8.66 | pIC50 (SKBR3; SK-BR-3, 5 h): 8.93 | Maximum inhibition (SKBR3; SKBR3, CTG, incubated 5 h): 96.36% | pIC50 (MDA-MB-468 [2]; MDA-MB-468, 5 h): 8.70 | Maximum inhibition (MDA-MB-468 [2]; MDA-MB-468, CTG, incubated 5 h): 90.94% | pIC50 (SKBR3 tumor cells): 8.87 | pIC50 (MDA-MB-468 [4]; MDA-MB-468): 8.78

C=C1C[C@@H]2CC[C@@]34C[C@H]5O[C@H]6[C@@H](O3)[C@H]3O[C@H](CC[C@@H]3O[C@H]6[C@H]5O4)CC(=O)C[C@@H]3[C@@H](OC)[C@@H](C[C@H](O)COC(=O)C4(O)CC4)O[C@H]3C[C@H]3O[C@@H](CC[C@@H]1O2)C[C@@H](C)C3=C [Compound D-7]
pIC50 (A549 [3]; A549, CTG, read-out: IC50): 8.75 | pIC50 (SKBR3 tumor cells; SKBR3, CTG, read-out: IC50): 9.32 | pIC50 (MDA-MB-468 [4]; [6]): 9.04

— US20230144203A1 (SHANGHAI SENHUI MEDICINE CO., LTD., priority 2020, published 2023)
